Laboratory results taken from ChEMBL document CHEMBL4330075, “Discovery of Novel Quinoline-Chalcone Derivatives as Potent Antitumor Agents with Microtubule Polymerization Inhibitory Activity” (J Med Chem, 2019).

What was measured:
[1] = Cytotoxicity against human MDA-MB-231 cells assessed as growth inhibition at 10 nM after 48 hrs; format: cell-based; settings: read-out: GI
K562 [2] = test: Induction of apoptosis in human K562 assessed as viable cells at 10 nM after 48 hrs by Annexin V-APC/propidium iodide staining-based flow cytometric analysis (reference value: 92.34%); format: functional; settings: K562, 48 h, read-out: Activity
[3] = Antitumor activity against […] H22 cells xenografted in ICR mouse assessed as reduction in tumor weight at 20 mg/kg, iv qd for 21 consecutive days and measured every 2 days relative to control; format: functional; design: scale not given: the % may be the effect or the level left
[4] = Toxicity in ICR mouse xenografted with […] cells assessed as effect on spleen at 10 to 20 mg/kg, iv qd for 21 consecutive days by H and E staining-based assay; format: organism-based; settings: in vivo
L02 = test: Cytotoxicity against human LO2 cells after 72 hrs by MTT assay; format: cell-based; settings: L02, 72 h
[5] = Toxicity in iv dosed ICR mouse assessed as mouse survival for 14 days; format: organism-based; settings: in vivo
K562 [6] = test: Induction of apoptosis in human K562 assessed as viable cells at 5 nM after 48 hrs by Annexin V-APC/propidium iodide staining-based flow cytometric analysis (reference value: 92.34%); format: functional; settings: K562, 48 h, read-out: Activity
HCT-8 = test: Antiproliferative activity against human HCT8 cells after 72 hrs by MTT assay; format: functional, cell-based; settings: HCT-8, 72 h
K562 [7] = test: Induction of mitochondrial membrane potential disruption in human K562 cells assessed as collapsed mitochondrial membrane potential at 10 nM after 48 hrs by JC-1 staining-based flow cytometric analysis (reference value: 0.63%); format: functional
K562 [8] = test: Induction of mitochondrial membrane potential disruption in human K562 cells assessed as intact mitochondrial membrane potential at 10 nM after 48 hrs by JC-1 staining-based flow cytometric analysis (reference value: 99.12%); format: functional
K562 [9] = test: Cell cycle arrest in human K562 cells assessed as accumulation of cells at S phase at 5 nM after 48 hrs by propidium iodide staining-based flow cytometric analysis (reference value: 36.27%); format: functional
KB = test: Antiproliferative activity against human KB cells after 72 hrs by MTT assay; format: functional, cell-based
K562 [10] = test: Cell cycle arrest in human K562 cells assessed as accumulation of cells at S phase at 20 nM after 48 hrs by propidium iodide staining-based flow cytometric analysis (reference value: 36.27%); format: functional

COc1ccc(/C=C(\C)C(=O)c2cc(C)nc3ccccc23)cc1O
inhibition at 48 h, 0.01 µM [1]: < 10% | viability at 0.01 µM (K562 [2]): 62.7% | Activity [3]: 65.3% | Activity [4]: Non-Toxic | IC50 (L02): 987 nM | LD50 at 336 h [5]: 666 mg/kg | viability at 0.005 µM (K562 [6]): 80.2% | IC50 (HCT-8): 15 nM | Activity (K562 [7]): 26.2% | Activity (K562 [8]): 73.8% | Activity (K562 [9]): 31.55% | IC50 (KB): 16 nM | Activity (K562 [10]): 30.35%
